The source of these data is US20250100963A1, “SULFONATED AND PHOSPHORYLATED AROMATIC MOLECULES” (Xavier University of Louisiana, priority 2023, published 2025).

Common to all, as to assay type: biochemical
The target of assay [1] is T1, CatG (Homo sapiens, UniProt P08311).
T1 sequence (P08311 21-244): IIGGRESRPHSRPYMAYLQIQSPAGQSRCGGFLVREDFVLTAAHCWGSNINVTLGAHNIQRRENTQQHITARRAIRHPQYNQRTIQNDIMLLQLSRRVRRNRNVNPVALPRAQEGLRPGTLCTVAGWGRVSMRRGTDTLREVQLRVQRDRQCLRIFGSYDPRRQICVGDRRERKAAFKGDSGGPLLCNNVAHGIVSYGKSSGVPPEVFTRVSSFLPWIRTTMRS
As to the kind of experiment: Michaelis-Menten kinetics of chromogenic substrate (S-7388) hydrolysis by CatG. How it is done:
The initial rate of the hydrolysis of the chromogenic substrate by CatG was monitored from the linear increase in absorbance corresponding to less than 10% consumption of substrate at 37° C. in pH 7.4 20 mM Tris buffer containing 100 mM NaCl, 2.5 mM CaCl2, 0.1% PEG 8000 and 0.05% tween 80. The initial rate was measured at various substrate concentrations ([…]) at fixed enzyme concentration (30 nM), and fixed sulfonated compounds concentrations (0, 25, 50, 100, 200, 400, and 800 nM). The data were fitted by the Michaelis-Menten Equation (3) to determine the KM (substrate affinity) and VMAX (maximum reaction velocity).
To understand the mechanistic basis of inhibition, Michaelis-Menten kinetics of S-7388 hydrolysis by CatG was performed in the presence of inhibitor 2 at pH 7.4 and 37° C. […] Table 5 and FIG. 5.

For assay [2], the target named is T1, CatG. The assay is described as follows: CatG-mediated degradation of laminin, SDS-PAGE. To be noted: inhibitor 10-1000 μM, CatG 0.8 μM, 60 min. How it is done:
The method further comprises inhibition of CatG-mediated degradation of laminin. Inhibition of CatG cleavage of laminin by sulfonated or phosphorylated compounds was studied using SDSPAGE. Briefly, CatG (0.8 μM) was incubated with different concentrations of the inhibitor (final concentrations; 0 μM, 10 μM, […] and 1000 μM), and laminin (20 μg). Following incubation for 60 min, the samples were quenched using SDS-PAGE loading buffer containing DTT and subjected to electrophoresis on 10% SDS-PAGE pre-cast gels. The gels were visualized by silver staining. […] In fact, based on their in vitro properties, it was reasoned that these inhibitors could protect extracellular matrix components from proteolysis mediated by proteinases activated during the inflammatory process including CatG. Accordingly, the in vitro effect of compound of Formula II on the CatG-mediated proteolysis of laminin, a non-collagenous component of ECM and basement membranes was studied. […] Thus, SDS-PAGE analyses indicate that sulfonated molecule inhibition of CatG is physiologically relevant.
Inhibition of CatG cleavage of laminin by sulfonated compounds was studied using SDSPAGE. Briefly, CatG (0.8 μM) was incubated with different concentrations of the inhibitor (final concentrations; 0 μM, 10 μM, 100 μM and 1000 μM), and laminin (20 μg). […]

The target of assay [3] is Human FXIa (Homo sapiens, UniProt P03951). As to the kind of experiment: Direct inhibition of FXIa, chromogenic substrate hydrolysis assay. To be noted: Tris-HCl buffer. The method, then:
Direct inhibitions of thrombin (FIIa), factor VIIa (FVIIa), factor IXa (FIXa), factor Xa (FXa), FXIa, factor XIIa (FXIIa), trypsin and chymotrypsin were evaluated using the corresponding chromogenic substrate hydrolysis assays as previously reported. Briefly, to each well of a 96-well microplate containing 85-185 μl of […] Tris buffer containing 100 mM NaCl, 2.5 mM CaCl2, 0.1% PEG 8000, and 0.05% tween 80 at 25 (thrombin) or 37° C. (FVIIa, FIXa, FXa, FXIa, FXIIa, chymotrypsin, and trypsin) were added 5 μl of enzyme (thrombin, FVIIa, FIXa, FXa, FXIa, FXIIa, chymotrypsin, and trypsin) and 5 μl of the inhibitor. Following an incubation period of 5 min, the appropriate chromogenic substrates (Spectrozyme TH, Spectrozyme FIXa, Spectrozyme FXa, S-2366, Spectrozyme FXIIa and S-2222) were added and the residual enzyme activity was measured from the initial rate of increase in absorbance at 405 nm. Relative residual enzyme activity as a function of the inhibitor concentration was fitted using Logistic Equation (1) to obtain the IC50 (potency), A Y % (efficacy) of enzyme inhibition, and HS (Hill slope). The concentrations of enzymes and substrates in microplate cells were: 6 nM and 50 μM for thrombin; 1.09 nM and 125 μM for FXa; 5 nM and 125 μM for FXIIa; 89 nM and 850 μM for FIXa; 8 nM and 1000 µM for FVIIa (along with 40 nM recombinant tissue factor); 72.5 ng/ml and 80 μM for bovine trypsin; and 500 ng/ml and 240 μM for bovine chymotrypsin.

One may read the Km as the concentration of substrate that gives half-maximal velocity. Broadly, the IC50 is the midpoint of a concentration-inhibition curve.

Where only a bound is given, the exact number is not on record here.

Sequence of Human FXIa (P03951 388-625): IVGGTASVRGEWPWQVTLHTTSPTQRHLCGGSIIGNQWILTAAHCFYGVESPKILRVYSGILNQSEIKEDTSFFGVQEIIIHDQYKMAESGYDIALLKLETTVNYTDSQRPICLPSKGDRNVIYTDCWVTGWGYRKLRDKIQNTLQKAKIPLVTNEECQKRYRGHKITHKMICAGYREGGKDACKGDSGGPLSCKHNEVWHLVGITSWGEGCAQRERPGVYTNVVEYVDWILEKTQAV
Sequence of Human FXIa (P03951 19-387 partner): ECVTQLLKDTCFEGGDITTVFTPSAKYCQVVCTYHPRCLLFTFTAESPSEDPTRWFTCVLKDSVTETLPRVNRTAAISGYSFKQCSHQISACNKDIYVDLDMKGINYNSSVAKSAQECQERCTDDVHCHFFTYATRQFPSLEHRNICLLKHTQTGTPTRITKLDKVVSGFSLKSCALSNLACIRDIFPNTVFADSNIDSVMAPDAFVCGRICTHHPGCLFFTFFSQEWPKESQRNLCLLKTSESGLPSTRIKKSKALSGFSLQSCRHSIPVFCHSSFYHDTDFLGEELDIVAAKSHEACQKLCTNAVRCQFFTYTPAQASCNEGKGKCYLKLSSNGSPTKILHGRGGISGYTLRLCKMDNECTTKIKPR

For the compound `O=C(Nc1cc(C(=O)Nc2ccc(S(=O)(=O)O)cc2S(=O)(=O)O)cc(C(=O)Nc2ccc(S(=O)(=O)O)cc2S(=O)(=O)O)c1)Nc1cc(C(=O)Nc2ccc(S(=O)(=O)O)cc2S(=O)(=O)O)cc(C(=O)Nc2ccc(S(=O)(=O)O)cc2S(=O)(=O)O)c1` [Formula II, 4,4′,4″,4′-((5,5′-(carbonylbis(azanediyl))bis(isophthaloyl))tetrakis(azanediyl))tetrakis(benzene-1,3-disulfonic acid)], in assay [1] (0 vs 800 nM inhibitor), the “Decrease of VMAX, absence of inhibitor vs 800 nM” value is reported as around 3 fold. The Km stood at 1200 ± 300 µM in assay [1] (Formula II 40 nM), 1290 ± 190 µM in assay [1] (Formula II 100 nM), 1400 ± 220 µM in assay [1] (Formula II 400 nM) and 1320 ± 207 µM in assay [1] (Formula II 800 nM). Besides, the Vmax in assay [1] (Formula II 40 nM) is on record as 26.1 ± 2.5 mAU/min; in assay [1] (Formula II 100 nM), 17.6 ± 1.1 mAU/min; in assay [1] (Formula II 400 nM), 11.4 ± 0.8 mAU/min; in assay [1] (Formula II 800 nM), 10.6 ± 0.95 mAU/min; in assay [1] (Formula II 800 nM, listed as inhibitor 2), 10.6±0.95 mAU/min. Further, the “KM for S-7388 in the presence or absence of inhibitor” value in assay [1] (inhibitor 0-800 nM, pH 7.4, 37° C.) is reported as “essentially unchanged”. For the same compound, in assay [2], the “Protection of laminin from cleavage by CatG” value is “protected completely”. The IC50 in assay [3] is above 500 µM.
